From ChEMBL document CHEMBL4422610, “HDAC as onco target: Reviewing the synthetic approaches with SAR study of their inhibitors” (Eur J Med Chem, 2018)

Target: T1, Histone deacetylase 7 (Homo sapiens, UniProt Q8WUI4)
T1 sequence (Q8WUI4 whole entry): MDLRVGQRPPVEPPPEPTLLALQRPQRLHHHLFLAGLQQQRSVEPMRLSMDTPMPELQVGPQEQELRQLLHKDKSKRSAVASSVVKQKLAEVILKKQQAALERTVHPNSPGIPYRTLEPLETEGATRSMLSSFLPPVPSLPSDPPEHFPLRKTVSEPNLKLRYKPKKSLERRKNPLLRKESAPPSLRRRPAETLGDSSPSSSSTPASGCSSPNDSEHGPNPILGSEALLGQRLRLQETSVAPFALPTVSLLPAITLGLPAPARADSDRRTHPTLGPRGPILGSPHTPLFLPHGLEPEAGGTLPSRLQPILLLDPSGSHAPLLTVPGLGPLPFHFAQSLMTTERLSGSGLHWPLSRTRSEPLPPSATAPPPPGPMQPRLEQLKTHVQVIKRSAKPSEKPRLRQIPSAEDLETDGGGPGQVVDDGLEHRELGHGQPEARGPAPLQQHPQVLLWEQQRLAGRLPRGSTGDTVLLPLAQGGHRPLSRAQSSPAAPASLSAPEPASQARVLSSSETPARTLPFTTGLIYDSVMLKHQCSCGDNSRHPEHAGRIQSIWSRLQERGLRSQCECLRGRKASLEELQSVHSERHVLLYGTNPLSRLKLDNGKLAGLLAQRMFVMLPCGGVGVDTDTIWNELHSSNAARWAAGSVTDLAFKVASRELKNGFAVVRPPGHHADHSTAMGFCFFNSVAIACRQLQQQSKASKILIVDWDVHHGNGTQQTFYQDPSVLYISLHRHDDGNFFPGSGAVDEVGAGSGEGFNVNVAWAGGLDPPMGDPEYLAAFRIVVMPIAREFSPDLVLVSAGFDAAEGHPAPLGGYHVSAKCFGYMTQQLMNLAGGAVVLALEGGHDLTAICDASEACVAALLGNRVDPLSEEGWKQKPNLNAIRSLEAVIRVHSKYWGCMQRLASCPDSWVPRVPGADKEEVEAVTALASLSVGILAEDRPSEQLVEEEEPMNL
Assay: Inhibition of human HDAC7 using fluorogenic HDAC substrate

In the case of `O=C(NO)c1ccc(CN2c3ccccc3CC[C@@H]3CCCC[C@H]32)cc1`, the IC50 is reported as > 30 µM.
